Results reported in ChEMBL document CHEMBL2401646 (Bioorg Med Chem Lett, 2013).
Values after ≈ are worked out from the molar mass of the structure shown.

Legend:
SNU-5 [1] = assay: Antitumor activity against human SNU5 cells xenografted in nu/nu CD1 mouse model assessed as tumor growth inhibition at 200 mg/kg, po qd for 20 days; settings: SNU-5, po, 480 h, read-out: TGI
[2] = Permeability of the compound at pH 7.4 by PAMPA; assay type: ADME; settings: read-out: permeability
Salmonella typhimurium [3] = assay: Mutagenic activity in Salmonella typhimurium TA98 by Ames test in absence of liver S9 fraction; assay type: toxicity, organism-based; settings: salmonella enterica subsp. enterica serovar typhimurium
[4] = Protein binding in human plasma by equilibrium dialysis; assay type: ADME, cell-free; settings: read-out: PPB (converted)
[5] = Antitumor activity against human U87MG cells xenografted in nu/nu CD1 mouse model assessed as tumor growth inhibition at 50 mg/kg, po qd for 14 days; assay type: functional, U-87MG ATCC; settings: U-87 MG, 336 h, read-out: TGI
MKN-45 = assay: Antiproliferative activity against human MKN45 cells after 3 days by CellTiter-Glo assay; assay type: functional, cell-based; settings: MKN-45, 72 h
[6] = Metabolic stability in mouse liver microsomes assessed as extraction ratio up to 40 mins by LC-MS/MS analysis; assay type: ADME, Microsome; settings: read-out: ERH
SNU-5 [7] = assay: Antitumor activity against human SNU5 cells xenografted in nu/nu CD1 mouse model assessed as maximum tumor regression at 50 mg/kg, po qd for 20 days
SNU-5 [8] = assay: Antitumor activity against human SNU5 cells xenografted in nu/nu CD1 mouse model assessed as maximum tumor regression at 100 mg/kg, po qd for 20 days
[9] = Antitumor activity against human U87MG cells xenografted in nu/nu CD1 mouse model assessed as maximum tumor regression at 50 mg/kg, po bid for 14 days; assay type: functional, U-87MG ATCC
[10] = Antitumor activity against human U87MG cells xenografted in nu/nu CD1 mouse model assessed as tumor growth inhibition at 100 mg/kg, po qd for 14 days; assay type: functional, U-87MG ATCC; settings: U-87 MG, 336 h, read-out: TGI
[11] = Solubility of the compound at pH 3; assay type: physicochemical; settings: buffer
[12] = molecular target: Hepatocyte growth factor receptor (Homo sapiens, UniProt P08581, Y1230H); assay: Inhibition of cMET Y1230H mutant (unknown origin) autophosphorylation
Mus musculus [13] = assay: Toxicity in human U87MG cells xenografted nu/nu CD1 mouse model assessed as body weigh loss at 50 mg/kg, po qd for 14 days; assay type: organism-based, U-87MG ATCC; set-up: dose 50 mg/kg, route oral; settings: in vivo, 336 h
[14] = Cmax in Sprague-Dawley rat at 20 mg/kg, po; assay type: ADME, organism-based; set-up: dose 20 mg/kg, route oral; settings: in vivo
Mus musculus [15] = assay: Toxicity in human U87MG cells xenografted nu/nu CD1 mouse model assessed as body weigh loss at 50 mg/kg, po bid for 14 days; assay type: organism-based, U-87MG ATCC; set-up: dose 50 mg/kg, route oral; settings: in vivo, 336 h
[16] = Oral bioavailability in Sprague-Dawley rat at 20 mg/kg; assay type: ADME, organism-based; settings: in vivo
[17] = molecular target: T1, Vascular endothelial growth factor receptor 2 (Homo sapiens, UniProt P35968); assay: Inhibition of KDR (unknown origin) autophosphorylation
[18] = Plasma concentration in human MKN45 cells xenografted in mouse at 100 mg/kg, po after 16 hrs; assay type: ADME, organism-based, MKN-45; set-up: dose 100 mg/kg, route oral
[19] = molecular target: Hepatocyte growth factor receptor (Homo sapiens, UniProt P08581, Y1230C); assay: Inhibition of cMET Y1230C mutant (unknown origin) autophosphorylation
Aurora kinase B [20] = molecular target: T2, Aurora kinase B (Homo sapiens, UniProt Q96GD4); assay: Inhibition of aurora-B in human HT-29 cells assessed as phosphorylation of histone H3 at Ser10; assay type: cell-based
SNU-5 [21] = assay: Antitumor activity against human SNU5 cells xenografted in nu/nu CD1 mouse model assessed as tumor growth inhibition at 50 mg/kg, po qd for 20 days; settings: SNU-5, po, 480 h, read-out: TGI
[22] = Half life in CD1 mouse at 2 mg/kg, iv; assay type: ADME, organism-based; set-up: dose 2 mg/kg, route intravenous; settings: in vivo
Mus musculus [23] = assay: Toxicity in human U87MG cells xenografted nu/nu CD1 mouse model assessed as body weigh loss at 100 mg/kg, po bid for 14 days; assay type: organism-based, U-87MG ATCC; set-up: dose 100 mg/kg, route oral; settings: in vivo, 336 h
[24] = Protein binding in mouse plasma by equilibrium dialysis; assay type: ADME, cell-free; settings: read-out: PPB (converted)
[25] = molecular target: Macrophage-stimulating protein receptor (Homo sapiens, UniProt Q04912); assay: Inhibition of short-form RON (unknown origin) expressed in human HeLa cells assessed as phosphorylated RON levels after 4 hrs; assay type: cell-based
Mus musculus [26] = assay: Inhibition of MET autophosphorylation at Y1234/1235 in human MKN45 cells xenografted in mouse at 100 mg/kg, po after 24 hrs; assay type: functional; settings: MKN-45, 24 h
[27] = Antitumor activity against human U87MG cells xenografted in nu/nu CD1 mouse model assessed as tumor growth inhibition at 50 mg/kg, po bid for 14 days; assay type: functional, U-87MG ATCC; settings: U-87 MG, 336 h, read-out: TGI
SNU-5 [28] = assay: Antitumor activity against human SNU5 cells xenografted in nu/nu CD1 mouse model assessed as tumor growth inhibition at 100 mg/kg, po qd for 20 days; settings: SNU-5, po, 480 h, read-out: TGI
[29] = molecular target: T3, Hepatocyte growth factor receptor (Homo sapiens, UniProt P08581); assay: Inhibition of cMET in human MKN45 cells assessed as phosphorylated MET levels after 4 hrs; assay type: cell-based, MKN-45
[30] = molecular target: T3, Hepatocyte growth factor receptor; assay: Inhibition of cMET (unknown origin) using biotinylated poly(Glu,Tyr) as substrate after 60 mins
[31] = Clearance in CD1 mouse at 2 mg/kg, iv; assay type: ADME, organism-based; set-up: dose 2 mg/kg, route intravenous; settings: in vivo
[32] = Plasma concentration in human MKN45 cells xenografted in mouse at 100 mg/kg, po up to 8 hrs; assay type: ADME, organism-based, MKN-45; set-up: dose 100 mg/kg, route oral
[33] = Antitumor activity against human U87MG cells xenografted in nu/nu CD1 mouse model assessed as maximum tumor regression at 100 mg/kg, po qd for 14 days; assay type: functional, U-87MG ATCC
Mus musculus [34] = assay: Inhibition of cMET autophosphorylation at Y1234/1235 in human MKN45 cells xenografted in nu/nu CD1 mouse at 100 mg/kg, po qd for 14 days measured after 24 hrs of last dose; assay type: functional; settings: MKN-45
[35] = Volume of distribution at steady state in Sprague-Dawley rat at 2 mg/kg, iv; assay type: ADME, organism-based; set-up: dose 2 mg/kg, route intravenous; settings: in vivo, read-out: Vdss
Mus musculus [36] = assay: Toxicity in human U87MG cells xenografted nu/nu CD1 mouse model assessed as body weigh loss at 100 mg/kg, po qd for 14 days; assay type: organism-based, U-87MG ATCC; set-up: dose 100 mg/kg, route oral; settings: in vivo, 336 h
Salmonella typhimurium [37] = assay: Mutagenic activity in Salmonella typhimurium TA100 by Ames test in absence of liver S9 fraction; assay type: toxicity, organism-based; settings: salmonella enterica subsp. enterica serovar typhimurium
[38] = Solubility of the compound at pH 4.5; assay type: physicochemical; settings: buffer
[39] = Antitumor activity against human U87MG cells xenografted in nu/nu CD1 mouse model assessed as maximum tumor regression at 100 mg/kg, po bid for 14 days; assay type: functional, U-87MG ATCC
[40] = Metabolic stability in human liver microsomes assessed as extraction ratio up to 40 mins by LC-MS/MS analysis; assay type: ADME, Microsome; settings: read-out: ERH
[41] = molecular target: T1, Vascular endothelial growth factor receptor 2; assay: Inhibition of KDR autophosphorylation in HUVEC
[42] = molecular target: T3, Hepatocyte growth factor receptor; assay: Inhibition of cMET in human MKN45 cells assessed as phosphorylated MET levels after 4 hrs in presence of mouse plasma; assay type: cell-based, MKN-45
Aurora kinase B [43] = molecular target: T2, Aurora kinase B; assay: Inhibition of aurora-B (unknown origin) autophosphorylation

In the case of C[C@@H](Oc1c(N)ncc2c(C3=CCN(C(N)=O)CC3)coc12)c1c(Cl)ccc(F)c1Cl, the inhibition in vivo at 200 mg/kg (SNU-5 [1]) is reported as 100%, the Papp [2] is reported as 359 ×10⁻⁶ cm/s and the Activity (Salmonella typhimurium [3]) is reported as “Non-toxic”. The fraction unbound [4] was 0.019, the inhibition in vivo at 50 mg/kg [5] was 58% and the IC50 (MKN-45) was 130 nM. It also gave a hepatic extraction ratio at 40 min [6] of 0.7, an Activity (SNU-5 [7]) of 31% and an Activity (SNU-5 [8]) of 64%. The Activity [9] was 0%, the inhibition in vivo at 100 mg/kg [10] was 79% and the solubility [11] was > 100 µM. The IC50 [12] was 110 nM, the Activity (Mus musculus [13]) was 0% and the Cmax [14] was 2500 nM. The Activity (Mus musculus [15]) was 5%, the bioavailability [16] was 72% and the IC50 [17] was 1300 nM. It also gave a concentration at 16 h [18] of 520 nM, an IC50 [19] of 72 nM and an IC50 (Aurora kinase B [20]) of 1000 nM. For the same molecule, the inhibition in vivo at 50 mg/kg (SNU-5 [21]) was 100%, the half-life [22] was 2.9 h and the Activity (Mus musculus [23]) was 0%. For the same molecule, the fraction unbound [24] was 0.018, the IC50 [25] was 200 nM and the inhibition in vivo at 100 mg/kg (Mus musculus [26]) was 45%. For the same molecule, the inhibition in vivo at 50 mg/kg [27] was 79%, the inhibition in vivo at 100 mg/kg (SNU-5 [28]) was 100% and the IC50 [29] was 42 nM. The IC50 [30] was 26 nM, the clearance [31] was 51 mL/min/kg and the concentration at 8 h [32] was > 3000 nM. For the same molecule, the Activity [33] was 0%, the inhibition in vivo at 100 mg/kg (Mus musculus [34]) was > 90% and the Vd [35] was 6.8 L/kg. The Activity (Mus musculus [36]) was 0%, the Activity (Salmonella typhimurium [37]) was “Non-toxic” and the solubility [38] was 11 µM (≈ 5.12 µg/mL). It also gave an Activity [39] of 22%, a hepatic extraction ratio at 40 min [40] of 0.7 and an IC50 [41] of 6100 nM. The IC50 [42] was 600 nM and the IC50 (Aurora kinase B [43]) was 11 nM.
